# US4068070A, “α-Cyanoamine compounds and a process for producing the same” (Fuji Chemical Industry Co., Ltd., priority 1974, dated 1978)
# Tests used:
# Type in all cases: in vivo, mongrel adult dogs
# aortic blood flow = experiment: Effects on aortic blood flow
# In short: (§1)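 Anaesthetised (pentobarbital sodium) thoracotomised mongrel dogs of either sex, about 10 kg, dosed intravenously via brachial vein, compounds in 0.2% CMC, HCl solution (pH 6) or saline. Arterial pressure via carotid cannula transducer, aortic and coronary sinus outflow by electromagnetic flowmeter, sinus pO2 by electrode after Morawitz cannulation.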
# [1] = system: arterial mean blood pressure; experiment: Effects on arterial mean blood pressure
# In short: as §1
# [2] = system: coronary sinus oxygen tension; experiment: Effects on coronary sinus oxygen tension
# In short: as §1
# coronary sinus out flow = experiment: Effects on coronary sinus out flow
# In short: as §1
# heart rate = experiment: Effects on heart rate
# In short: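 Adult mongrel dogs of both sexes were anesthetized with pentobarbital and thoracotomized. Test agents, suspended or dissolved in 0.2% CMC, pH 6 HCl solution or saline, were injected intravenously into the brachial vein. Hemodynamic and coronary sinus parameters were then recorded.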
structure (smiles),measurement,setting,value
COc1ccc(C(C#N)N2CCCN(CC=Cc3ccccc3)CC2)cc1OC (centres unmarked) [Compound E],"Changes (%) of basal values, aortic blood flow","aortic blood flow; 2.0 mg/kg i.v., 1 min",+3.6%
same,"Changes (%) of basal values, aortic blood flow","aortic blood flow; 2.0 mg/kg i.v., 5 min",+0.8%
same,"Changes (%) of basal values, aortic blood flow","aortic blood flow; 2.0 mg/kg i.v., 10 min",0%
same,"Changes (%) of basal values, aortic blood flow","aortic blood flow; 2.0 mg/kg i.v., 20 min",0%
same,"Changes (%) of basal values, aortic blood flow","aortic blood flow; 2.0 mg/kg i.v., 30 min",0%
same,"Changes (%) of basal values, aortic blood flow","aortic blood flow; 2.0 mg/kg i.v., 40 min",0%
same,"Changes (%) of basal values, aortic blood flow","aortic blood flow; 2.0 mg/kg i.v., imm.",+9.9%
same,"Changes (%) of basal values, aortic blood flow","aortic blood flow; 6.0 mg/kg i.v., 1 min",+5.8%
same,"Changes (%) of basal values, aortic blood flow","aortic blood flow; 6.0 mg/kg i.v., 5 min",0%
same,"Changes (%) of basal values, aortic blood flow","aortic blood flow; 6.0 mg/kg i.v., 10 min",-3.7%
same,"Changes (%) of basal values, aortic blood flow","aortic blood flow; 6.0 mg/kg i.v., 20 min",-2.8%
same,"Changes (%) of basal values, aortic blood flow","aortic blood flow; 6.0 mg/kg i.v., 30 min",-1.5%
same,"Changes (%) of basal values, aortic blood flow","aortic blood flow; 6.0 mg/kg i.v., 40 min",-0.3%
same,"Changes (%) of basal values, aortic blood flow","aortic blood flow; 6.0 mg/kg i.v., imm.",+11.7%
same,"Changes (%) of basal values, aortic blood flow","aortic blood flow; 20.0 mg/kg i.v., 1 min",+7.6%
same,"Changes (%) of basal values, aortic blood flow","aortic blood flow; 20.0 mg/kg i.v., 5 min",-4.8%
same,"Changes (%) of basal values, aortic blood flow","aortic blood flow; 20.0 mg/kg i.v., 10 min",-12.4%
same,"Changes (%) of basal values, aortic blood flow","aortic blood flow; 20.0 mg/kg i.v., 20 min",-10.5%
same,"Changes (%) of basal values, aortic blood flow","aortic blood flow; 20.0 mg/kg i.v., 30 min",-9.5%
same,"Changes (%) of basal values, aortic blood flow","aortic blood flow; 20.0 mg/kg i.v., 40 min",-7.6%
same,"Changes (%) of basal values, aortic blood flow","aortic blood flow; 20.0 mg/kg i.v., imm.",+16.3%
same,Effects on aortic blood flow (in words),"aortic blood flow; i.v., anesthetized dogs","an increase in blood flow immediately after administration, followed by a decrease in blood flow"
same,"Changes (%) of basal values, arterial mean blood pressure","[1]; 2.0 mg/kg i.v., 1 min",-1.5%
same,"Changes (%) of basal values, arterial mean blood pressure","[1]; 2.0 mg/kg i.v., 5 min",-3.3%
same,"Changes (%) of basal values, arterial mean blood pressure","[1]; 2.0 mg/kg i.v., 10 min",-2.1%
same,"Changes (%) of basal values, arterial mean blood pressure","[1]; 2.0 mg/kg i.v., 20 min",-1.0%
same,"Changes (%) of basal values, arterial mean blood pressure","[1]; 2.0 mg/kg i.v., 30 min",-0.3%
same,"Changes (%) of basal values, arterial mean blood pressure","[1]; 2.0 mg/kg i.v., 40 min",0%
same,"Changes (%) of basal values, arterial mean blood pressure","[1]; 2.0 mg/kg i.v., imm.",-7.4%
same,"Changes (%) of basal values, arterial mean blood pressure","[1]; 6.0 mg/kg i.v., 1 min",-3.8%
same,"Changes (%) of basal values, arterial mean blood pressure","[1]; 6.0 mg/kg i.v., 5 min",-6.0%
same,"Changes (%) of basal values, arterial mean blood pressure","[1]; 6.0 mg/kg i.v., 10 min",-10.9%
same,"Changes (%) of basal values, arterial mean blood pressure","[1]; 6.0 mg/kg i.v., 20 min",-8.2%
same,"Changes (%) of basal values, arterial mean blood pressure","[1]; 6.0 mg/kg i.v., 30 min",-3.8%
same,"Changes (%) of basal values, arterial mean blood pressure","[1]; 6.0 mg/kg i.v., 40 min",-2.8%
same,"Changes (%) of basal values, arterial mean blood pressure","[1]; 6.0 mg/kg i.v., imm.",-22.6%
same,"Changes (%) of basal values, arterial mean blood pressure","[1]; 20.0 mg/kg i.v., 1 min",-8.3%
same,"Changes (%) of basal values, arterial mean blood pressure","[1]; 20.0 mg/kg i.v., 5 min",-15.9%
same,"Changes (%) of basal values, arterial mean blood pressure","[1]; 20.0 mg/kg i.v., 10 min",-21.2%
same,"Changes (%) of basal values, arterial mean blood pressure","[1]; 20.0 mg/kg i.v., 20 min",-19.9%
same,"Changes (%) of basal values, arterial mean blood pressure","[1]; 20.0 mg/kg i.v., 30 min",-16.2%
same,"Changes (%) of basal values, arterial mean blood pressure","[1]; 20.0 mg/kg i.v., 40 min",-11.4%
same,"Changes (%) of basal values, arterial mean blood pressure","[1]; 20.0 mg/kg i.v., imm.",-29.9%
same,Effects on arterial mean blood pressure (in words),"[1]; i.v., anesthetized dogs",hypotensive effects being proportioned to their doses which were of long duration
same,"Changes(%) of basal values, coronary sinus oxygen tension","[2]; 2.0 mg/kg i.v., 1 min",+4.1%
same,"Changes(%) of basal values, coronary sinus oxygen tension","[2]; 2.0 mg/kg i.v., 5 min",+1.1%
same,"Changes(%) of basal values, coronary sinus oxygen tension","[2]; 2.0 mg/kg i.v., 10 min",+0.5%
same,"Changes(%) of basal values, coronary sinus oxygen tension","[2]; 2.0 mg/kg i.v., 20 min",0%
same,"Changes(%) of basal values, coronary sinus oxygen tension","[2]; 2.0 mg/kg i.v., 30 min",0%
same,"Changes(%) of basal values, coronary sinus oxygen tension","[2]; 2.0 mg/kg i.v., 40 min",0%
same,"Changes(%) of basal values, coronary sinus oxygen tension","[2]; 2.0 mg/kg i.v., imm.",+8.3%
same,"Changes(%) of basal values, coronary sinus oxygen tension","[2]; 6.0 mg/kg i.v., 1 min",+27.0%
same,"Changes(%) of basal values, coronary sinus oxygen tension","[2]; 6.0 mg/kg i.v., 5 min",+8.0%
same,"Changes(%) of basal values, coronary sinus oxygen tension","[2]; 6.0 mg/kg i.v., 10 min",+8.5%
same,"Changes(%) of basal values, coronary sinus oxygen tension","[2]; 6.0 mg/kg i.v., 20 min",+4.2%
same,"Changes(%) of basal values, coronary sinus oxygen tension","[2]; 6.0 mg/kg i.v., 30 min",+2.5%
same,"Changes(%) of basal values, coronary sinus oxygen tension","[2]; 6.0 mg/kg i.v., 40 min",+0.8%
same,"Changes(%) of basal values, coronary sinus oxygen tension","[2]; 6.0 mg/kg i.v., imm.",+29.7%
same,"Changes(%) of basal values, coronary sinus oxygen tension","[2]; 20.0 mg/kg i.v., 1 min",+39.2%
same,"Changes(%) of basal values, coronary sinus oxygen tension","[2]; 20.0 mg/kg i.v., 5 min",+20.4%
same,"Changes(%) of basal values, coronary sinus oxygen tension","[2]; 20.0 mg/kg i.v., 10 min",+16.6%
same,"Changes(%) of basal values, coronary sinus oxygen tension","[2]; 20.0 mg/kg i.v., 20 min",+20.8%
same,"Changes(%) of basal values, coronary sinus oxygen tension","[2]; 20.0 mg/kg i.v., 30 min",+20.2%
same,"Changes(%) of basal values, coronary sinus oxygen tension","[2]; 20.0 mg/kg i.v., 40 min",+19.8%
same,"Changes(%) of basal values, coronary sinus oxygen tension","[2]; 20.0 mg/kg i.v., imm.",+46.2%
same,Effects on coronary sinus oxygen tension (in words),"[2]; i.v., anesthetized dogs","a significant increase in coronary sinus oxygen tension, effect of which was of long duration"
same,"Changes(%) of basal values, coronary sinus out flow","coronary sinus out flow; 2.0 mg/kg i.v., 1 min",+2.5%
same,"Changes(%) of basal values, coronary sinus out flow","coronary sinus out flow; 2.0 mg/kg i.v., 5 min",-0.8%
same,"Changes(%) of basal values, coronary sinus out flow","coronary sinus out flow; 2.0 mg/kg i.v., 10 min",-1.0%
same,"Changes(%) of basal values, coronary sinus out flow","coronary sinus out flow; 2.0 mg/kg i.v., 20 min",-0.3%
same,"Changes(%) of basal values, coronary sinus out flow","coronary sinus out flow; 2.0 mg/kg i.v., 30 min",0%
same,"Changes(%) of basal values, coronary sinus out flow","coronary sinus out flow; 2.0 mg/kg i.v., 40 min",0%
same,"Changes(%) of basal values, coronary sinus out flow","coronary sinus out flow; 2.0 mg/kg i.v., imm.",+7.8%
same,"Changes(%) of basal values, coronary sinus out flow","coronary sinus out flow; 6.0 mg/kg i.v., 1 min",+24.3%
same,"Changes(%) of basal values, coronary sinus out flow","coronary sinus out flow; 6.0 mg/kg i.v., 5 min",+4.2%
same,"Changes(%) of basal values, coronary sinus out flow","coronary sinus out flow; 6.0 mg/kg i.v., 10 min",+3.3%
same,"Changes(%) of basal values, coronary sinus out flow","coronary sinus out flow; 6.0 mg/kg i.v., 20 min",+2.3%
same,"Changes(%) of basal values, coronary sinus out flow","coronary sinus out flow; 6.0 mg/kg i.v., 30 min",+1.5%
same,"Changes(%) of basal values, coronary sinus out flow","coronary sinus out flow; 6.0 mg/kg i.v., 40 min",+1.1%
same,"Changes(%) of basal values, coronary sinus out flow","coronary sinus out flow; 6.0 mg/kg i.v., imm.",+51.3%
same,"Changes(%) of basal values, coronary sinus out flow","coronary sinus out flow; 20.0 mg/kg i.v., 1 min",+64.3%
same,"Changes(%) of basal values, coronary sinus out flow","coronary sinus out flow; 20.0 mg/kg i.v., 5 min",+14.7%
same,"Changes(%) of basal values, coronary sinus out flow","coronary sinus out flow; 20.0 mg/kg i.v., 10 min",+15.8%
same,"Changes(%) of basal values, coronary sinus out flow","coronary sinus out flow; 20.0 mg/kg i.v., 20 min",+15.4%
same,"Changes(%) of basal values, coronary sinus out flow","coronary sinus out flow; 20.0 mg/kg i.v., 30 min",+12.1%
same,"Changes(%) of basal values, coronary sinus out flow","coronary sinus out flow; 20.0 mg/kg i.v., 40 min",+9.8%
same,"Changes(%) of basal values, coronary sinus out flow","coronary sinus out flow; 20.0 mg/kg i.v., imm.",+90.3%
same,Effects on coronary sinus out flow (in words),"coronary sinus out flow; i.v., anesthetized dogs","a marked increasing effect on coronary sinus out flow, which was proportioned to doses thereof and of long duration"
same,"Changes(%) of basal values, heart rate","heart rate; 2.0 mg/kg i.v., 1 min",-0.2%
same,"Changes(%) of basal values, heart rate","heart rate; 2.0 mg/kg i.v., 5 min",-0.6%
same,"Changes(%) of basal values, heart rate","heart rate; 2.0 mg/kg i.v., 10 min",-1.3%
same,"Changes(%) of basal values, heart rate","heart rate; 2.0 mg/kg i.v., 20 min",0%
same,"Changes(%) of basal values, heart rate","heart rate; 2.0 mg/kg i.v., 30 min",0%
same,"Changes(%) of basal values, heart rate","heart rate; 2.0 mg/kg i.v., 40 min",0%
same,"Changes(%) of basal values, heart rate","heart rate; 2.0 mg/kg i.v., imm.",-2.9%
same,"Changes(%) of basal values, heart rate","heart rate; 6.0 mg/kg i.v., 1 min",-0.9%
same,"Changes(%) of basal values, heart rate","heart rate; 6.0 mg/kg i.v., 5 min",-3.7%
same,"Changes(%) of basal values, heart rate","heart rate; 6.0 mg/kg i.v., 10 min",-1.4%
same,"Changes(%) of basal values, heart rate","heart rate; 6.0 mg/kg i.v., 20 min",-1.3%
same,"Changes(%) of basal values, heart rate","heart rate; 6.0 mg/kg i.v., 30 min",-0.8%
same,"Changes(%) of basal values, heart rate","heart rate; 6.0 mg/kg i.v., 40 min",-0.6%
same,"Changes(%) of basal values, heart rate","heart rate; 6.0 mg/kg i.v., imm.",-9.1%
same,"Changes(%) of basal values, heart rate","heart rate; 20.0 mg/kg i.v., 1 min",-1.0%
same,"Changes(%) of basal values, heart rate","heart rate; 20.0 mg/kg i.v., 5 min",-7.8%
same,"Changes(%) of basal values, heart rate","heart rate; 20.0 mg/kg i.v., 10 min",-9.1%
same,"Changes(%) of basal values, heart rate","heart rate; 20.0 mg/kg i.v., 20 min",-7.9%
same,"Changes(%) of basal values, heart rate","heart rate; 20.0 mg/kg i.v., 30 min",-7.1%
same,"Changes(%) of basal values, heart rate","heart rate; 20.0 mg/kg i.v., 40 min",-6.6%
same,"Changes(%) of basal values, heart rate","heart rate; 20.0 mg/kg i.v., imm.",-16.8%
same,Effects on heart rate (in words),"heart rate; i.v., anesthetized dogs",a slight negative chronotropic effect
